# Results published in PubChem BioAssay (NCI).
#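 Tested at 5 concentrations; 48 h exposure; 96-well plates; endpoints linearly interpolated, else capped at highest concentration. GI50 is the concentration that inhibits growth by half. TGI is the concentration that stops growth completely.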
# Legend:
# Assay in all cases: NCI anticancer screen, dose series, 48 h
# [1] = system: M14 melanoma
# [2] = system: MDA-MB-435
# [3] = system: COLO 205 colon
# [4] = system: SR leukemia
# [5] = system: OVCAR-4 ovarian
# [6] = system: HCC-2998 colon
# [7] = system: EKVX NSCLC
# [8] = system: SW-620 colon
# [9] = system: U251 CNS
# [10] = system: SK-MEL-2 melanoma
Compound,TGI [1] [µM],TGI [2] [µM],TGI [3] [µM],TGI [4] [µM],TGI [5] [µM],TGI [6] [µM],TGI [7] [µM],TGI [8] [µM],TGI [9] [µM],TGI [10] [µM],GI50 [2] [µM],GI50 [3] [µM],GI50 [4] [µM],GI50 [6] [µM],GI50 [7] [µM],GI50 [8] [µM],GI50 [10] [µM]
COc1cc(Cc2cc3c(c(C(=O)O)c2Br)OCO3)cc(OC)c1OC,> 100,> 100,> 100,89,> 100,> 100,> 100,> 100,> 100,> 100,–,–,–,–,–,–,–
COc1ccc(C2=CC(c3ccccc3)n3nnnc3N2)cc1 (stereo unspecified),> 100,> 100,> 100,> 100,–,–,–,> 100,> 100,> 100,–,–,–,–,–,–,–
COc1ccccc1/C=C/C1=NN(c2cccc(S(=O)(=O)O)c2)C2(C1)SCC(=O)N2c1nc2ccccc2s1 (stereo unspecified),> 100,> 100,> 100,87.9,> 100,> 100,> 100,> 100,> 100,> 100,–,–,–,–,–,–,–
O=C(O)c1ccccc1NC(c1ccccc1)c1ccc2cccnc2c1O (stereo unspecified),38.8,> 66.9,80.9,> 46.8,34.6,> 100,> 47.5,46.4,21.8,> 100,–,–,–,–,–,–,–
CCOC(=O)C1(C(N)=O)C(=O)c2ccncc2C1=O (stereo unspecified),> 100,> 100,> 100,> 100,> 100,> 100,> 100,> 100,> 100,> 100,–,–,–,–,–,–,–
COc1cc(C2SC(N)=Nc3c2c(C)nn3C(=O)c2ccccc2O)cc(OC)c1OC (stereo unspecified),> 10,> 10,> 10,> 10,> 10,–,> 10,> 10,> 10,> 10,–,–,–,–,–,–,–
COc1cc(C=O)ccc1Oc1nnnn1-c1ccccc1,> 100,> 100,> 100,51.1,> 100,–,> 100,> 100,> 100,> 100,–,–,–,–,–,–,–
COc1ccc(/C=C2\CCCC(CN(C)C)C2=O)cc1 (stereo unspecified),4.21,6.96,4.45,2.42,4.43,16.6,24.8,2.39,3.88,11,–,–,–,–,–,–,–
C=CCOC(=O)N1[C@H]2C#C/C=C\C#C[C@]3(O)C(=O)C[C@H](C)[C@]24O[C@]43C2=CC(=O)C=CC21OC (stereo partly specified),> 100,> 100,38.8,29.9,84.2,77.6,> 100,> 100,> 100,66.5,–,–,–,–,–,–,–
CC(=O)Nc1ccc(Nc2cc(=O)[nH]c(=O)[nH]2)cc1,> 100,> 100,> 100,> 100,> 100,> 100,> 100,> 100,> 100,–,–,–,–,–,–,–,–
NC(=O)c1nnc2ccc(F)cc2c1N,> 100,> 100,> 100,> 100,> 100,> 100,> 100,> 100,> 100,> 100,–,–,–,–,–,–,–
Cc1c2c(c(C)n1-c1ccccc1)C(=O)N(CCCCN1CCN(c3ccccc3)CC1)C2=O,79.7,40.8,21.7,27,82.5,27.1,65.7,> 100,84.9,62.6,–,–,–,–,–,–,–
CCOC(=O)c1ccc(Nc2cnc3cc(C(F)(F)F)ccc3n2)cc1,–,> 100,> 100,> 100,> 100,> 100,> 100,> 100,> 100,–,–,–,–,–,–,–,–
CC1(C)CCC[C@@]2(C)C1CCC1(C)C(CCc3ccoc3)/C(=C/OS(=O)(=O)O)CCC12 (stereo partly specified) (tested in a mixture with another compound),> 100,–,> 100,> 100,> 100,> 100,> 100,> 100,> 100,> 100,–,–,–,–,–,–,–
CC(C)(C)c1cc(CC2C(=O)c3ccccc3C2=O)cc(C(C)(C)C)c1O,11.6,20,30.7,16.6,> 100,–,28,17.1,13.2,10.8,–,–,–,–,–,–,–
CCCCCC(C)(C)CCC(=O)OC1OC(COC2OC(COC3OC(CO)C(O)C(O)C3O)C(O)C(O)C2O)C(O)C(O)C1O (stereo unspecified),> 100,> 100,> 100,> 100,–,> 100,> 100,> 100,> 100,> 100,–,–,–,–,–,–,–
Cc1ccc(-c2nc(C)c(C(=O)Nc3ccc(Cl)cc3)s2)cc1,> 100,> 100,> 100,> 100,49.2,–,> 100,> 100,48.8,> 100,–,–,–,–,–,–,–
CC(=O)OC12/C(=N/O)CCCCCC1c1ccccc12 (stereo unspecified),–,–,> 100,> 100,> 100,–,> 100,> 100,> 100,> 100,–,–,–,–,–,–,–
C=C(C)C(=O)O[C@H]1C/C(CO)=C/CCC(=C)C(OC(C)=O)[C@H]2OC(=O)C(=C)[C@H]12 (stereo partly specified),12.5,17.8,15.7,17.5,–,32,–,74.2,35.8,35.6,–,–,–,–,–,–,–
Cc1ccc(S(=O)(=O)c2c(N)c3nc4ccccc4n3c3nc4ccccc4nc23)cc1,> 100,–,> 100,> 100,> 100,> 100,> 100,> 100,> 100,> 100,–,–,–,–,–,–,–
Fc1ccc2[nH]cc(-c3nc(-c4c[nH]c5ncccc45)cs3)c2c1,–,> 100,> 100,> 100,–,> 100,> 100,> 100,–,> 100,12.5,1.7,2.79,> 100,3.34,> 100,> 100
